The target of experiment [1] is T1, C3a receptor (C3aR) (Homo sapiens, UniProt Q16581).
T1 construct: peripheral blood mononuclear cells were isolated from buffy coat (obtained from Australian Red Cross Blood Service, Kelvin Grove); endogenous in cells; host or cells: primary human monocyte-derived macrophages (HMDM) differentiated from CD14+ monocytes of donor buffy coat
T1 sequence (Q16581 1-482): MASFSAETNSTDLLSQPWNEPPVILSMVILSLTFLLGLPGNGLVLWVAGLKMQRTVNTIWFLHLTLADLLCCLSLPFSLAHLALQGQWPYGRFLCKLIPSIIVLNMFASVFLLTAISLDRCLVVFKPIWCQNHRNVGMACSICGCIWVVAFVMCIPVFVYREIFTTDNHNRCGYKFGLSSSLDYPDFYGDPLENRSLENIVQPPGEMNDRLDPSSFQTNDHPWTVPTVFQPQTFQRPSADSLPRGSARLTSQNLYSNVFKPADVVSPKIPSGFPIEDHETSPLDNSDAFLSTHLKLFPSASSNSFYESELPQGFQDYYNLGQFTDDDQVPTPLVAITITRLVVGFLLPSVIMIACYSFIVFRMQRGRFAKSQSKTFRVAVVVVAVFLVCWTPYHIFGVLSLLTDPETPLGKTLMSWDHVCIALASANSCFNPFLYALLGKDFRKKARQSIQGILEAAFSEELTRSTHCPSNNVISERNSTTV
Put plainly: Competitive binding with [^125I]-C3a in HMDM. To be noted: Table 6, competitive binding with [^125I]-C3a, HMDM. In outline:
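IC50 values are geometric means, with −log IC50 computed per experiment and given as arithmetic mean ± SE. Cells were CD14+ monocytes from buffy-coat PBMC, differentiated to macrophages and used on day 7. Unbound label was removed by GF/B filtration with 3 cold washes in 50 mM Tris-HCl pH 7.4.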

Experiment [2] has as its target T2, C3aR (Homo sapiens, UniProt Q16581).
T2 construct: peripheral blood mononuclear cells were isolated from buffy coat (obtained from Australian Red Cross Blood Service, Kelvin Grove); endogenous in cells; host or cells: primary human monocyte-derived macrophages (HMDM) differentiated from CD14+ monocytes of donor buffy coat
T2 sequence (Q16581 1-482): T1 sequence (Q16581 1-482)
Nature of the experiment: Calcium mobilization assay in HMDM (agonist/antagonist activity). The class given is cell-based. To be noted: Table 9, Ca^2+ mobilization, HMDM. The procedure, abridged:
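Human monocyte-derived macrophages, 5×10^4 cells/well, loaded 1 h at 37 °C with 4 μM Fluo-3 in HBSS/HEPES/probenecid buffer, pH 7.4. Agonist mode: calcium release read 300 s; antagonist mode: 900 s compound preincubation then agonist, read 300 s (ex 485/em 520 nm); compared with hC3a.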
In general terms: Calcium assays in cells follow changes in intracellular calcium, usually with a dye or a luminescent sensor.

Experiment [3] has as its target T2, C3aR. Nature of the experiment: Desensitization experiments (Ca^2+ efflux after hC3a desensitization). The class given is cell-based. To be noted: hC3a 3 μM first; second addition of 1 μM compound; HMDM. As to the method: Desensitization experiments were used to measure the selectivity of various ligands for C3aR, since this can help to clarify whether the non-peptidic ligands bind selectively to C3aR over other GPCRs that signal through intracellular calcium release.
The hC3a (3 μM) was administered to human monocyte derived macrophage cells, which produces an efflux of intracellular Ca^2+ that dissipates after 4-5 mins (FIGS. 4A and 4B). A second addition of 3 μM hC3a after 5 mins has no effect, due to desensitization of the receptor through either receptor (C3a receptor) phosphorylation or receptor internalization from the cell surface.

`CC(C)C[C@H](NC(=O)c1c[nH]c2ccccc12)c1nc(C(=O)N[C@@H](CCCNC(=N)N)C(=O)O)co1` [Compound 8, 3-Indole Carboxylic Acid-Leucine-Oxazole-Arginine-OH]: the “pIC50 ± SEM” value in experiment [1] is given as 8.03 ± 0.05. Further, in experiment [1] (read-out: IC50 (converted)), the half-inhibitory concentration (IC50) was 9 nM. Besides, the “pEC50 ± SEM” value in experiment [2] turned out to be 8.15 ± 0.10. In experiment [2] (read-out: EC50), the EC50 came out at 7.2 nM. The “Ca^2+ efflux on addition after first desensitization with hC3a (selectivity for C3aR over other GPCRs)” value in experiment [3] was “caused a second efflux of intracellular Ca^2+”.

What is called IC50 is the point on the concentration scale where inhibition reaches its midpoint. A word on the EC50: it is the concentration giving half of the maximal effect.

(Values after patent publication US9586914B2, “Modulators of C3a receptors” (THE UNIVERSITY OF QUEENSLAND, priority 2011, dated 2017).)
